Reference: patent US4102918A, “Anionic phenylcarboxamide complement inhibitors” (American Cyanamid Company, priority 1977, dated 1978)
Where a name gives a salt, the structure may show the parent alone.

Legend:
Conditions in all cases: activity in wells, two-fold serial dilution assay; higher well number indicates higher activity
activated human C1 = biological target: T1, activated human C1 (Homo sapiens, UniProt P09871); experiment: Test, Code 026 (C1 inhibitor); format: biochemical
T1 construct: fluid-phase C2 cleavage in presence of C4
From the text: (§1) An active inhibitor protects C2 from C1 and C4; (ii) Test, Code 035 (C3-C9 inhibitor) -- This test determines the ability of the late components of human complement (C3-C9) to lyse EAC 142 in the presence of appropriate dilutions of the test compound. An active inhibitor protects EAC 142 from lysis by human C3-C9; (iii) Test, Code 036 (C-shunt inhibitor) -- In this test human erythrocytes rendered fragile are lysed in autologous serum via the shunt pathway activated by cobra venom factor in the presence of appropriate dilutions of the test compound. Inhibition of the shunt pathway results in failure of lysis; (iv) Forssman Vasculitis Test -- Here, the well known complement dependent lesion, Forssman vasculitis, is produced in guinea pigs by intradermal injection of rabbit anti-Forssman antiserum. The lesion is measured in terms of diameter, edema and hemorrhage and the extent to which a combined index of these is inhibited by prior intraperitoneal injection of the test compound at 200 mg/kg is then reported, unless otherwise stated; (v) Forssman Shock Test -- Lethal shock is produced in guinea pigs by an i.v. injection of anti-Forssman antiserum and the harmonic mean death time of treated guinea pigs is compared with that of simultaneous controls; (vi) Complement Level Reduction Test -- In this test, the above dosed guinea pigs, or others, are bled for serum and the complement level is determined in undiluted serum by the capillary tube method of U.S. Pat. No. 3,876,376 and compared to undosed control guinea pigs; and (vii) Cap 50 Test -- Here, appropriate amounts of the test compound are added to a pool of guinea pig serum in vitro, after which the undiluted serum capillary tube assay referred to above is run. The concentration of compound inhibiting 50% is reported.

[1] = system: late components of human complement (C3-C9); experiment: Test, Code 035 (C3-C9 inhibitor), lysis of EAC 142; format: biochemical
From the text: as §1

shunt pathway = experiment: Test, Code 036 (C-shunt inhibitor), lysis of fragile human erythrocytes in autologous serum, cobra venom factor activated; format: cell-based
From the text: as §1

T1 sequence (P09871 16-688): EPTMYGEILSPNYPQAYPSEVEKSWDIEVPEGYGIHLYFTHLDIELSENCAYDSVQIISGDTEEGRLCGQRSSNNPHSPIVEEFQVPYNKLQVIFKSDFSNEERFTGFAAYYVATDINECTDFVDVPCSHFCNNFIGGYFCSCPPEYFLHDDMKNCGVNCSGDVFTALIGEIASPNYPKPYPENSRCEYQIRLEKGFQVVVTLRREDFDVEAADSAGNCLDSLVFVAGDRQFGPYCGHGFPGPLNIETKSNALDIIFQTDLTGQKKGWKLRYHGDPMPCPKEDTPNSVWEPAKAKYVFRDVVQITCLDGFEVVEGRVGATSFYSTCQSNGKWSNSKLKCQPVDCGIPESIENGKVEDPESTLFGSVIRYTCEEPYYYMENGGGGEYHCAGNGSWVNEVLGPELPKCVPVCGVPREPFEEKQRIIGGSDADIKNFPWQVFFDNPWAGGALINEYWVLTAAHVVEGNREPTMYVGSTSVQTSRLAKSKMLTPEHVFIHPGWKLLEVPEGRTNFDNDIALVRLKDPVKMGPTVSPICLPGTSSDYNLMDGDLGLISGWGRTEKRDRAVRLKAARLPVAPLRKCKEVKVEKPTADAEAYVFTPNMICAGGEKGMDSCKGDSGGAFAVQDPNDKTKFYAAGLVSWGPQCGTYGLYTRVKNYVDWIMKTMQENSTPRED
T1 sequence (P00736 18-705 partner): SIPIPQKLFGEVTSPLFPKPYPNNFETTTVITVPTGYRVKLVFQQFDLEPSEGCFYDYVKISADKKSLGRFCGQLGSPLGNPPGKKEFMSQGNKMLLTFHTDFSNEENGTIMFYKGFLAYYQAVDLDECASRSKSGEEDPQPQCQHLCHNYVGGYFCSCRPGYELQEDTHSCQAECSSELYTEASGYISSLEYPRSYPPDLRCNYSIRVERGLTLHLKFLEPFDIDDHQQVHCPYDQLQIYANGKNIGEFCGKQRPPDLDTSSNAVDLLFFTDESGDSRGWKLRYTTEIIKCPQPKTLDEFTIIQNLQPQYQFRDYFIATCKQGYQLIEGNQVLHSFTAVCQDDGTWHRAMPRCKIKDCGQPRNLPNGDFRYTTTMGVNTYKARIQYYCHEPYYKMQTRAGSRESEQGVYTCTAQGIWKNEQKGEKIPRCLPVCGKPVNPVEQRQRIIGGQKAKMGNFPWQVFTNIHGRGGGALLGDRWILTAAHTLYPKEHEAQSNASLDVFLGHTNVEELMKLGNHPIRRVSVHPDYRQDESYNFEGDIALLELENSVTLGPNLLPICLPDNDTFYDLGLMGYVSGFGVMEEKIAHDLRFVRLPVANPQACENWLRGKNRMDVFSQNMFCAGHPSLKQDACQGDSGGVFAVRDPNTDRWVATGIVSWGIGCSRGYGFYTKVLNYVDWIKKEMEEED
T1 sequence (P02745 23-245 partner): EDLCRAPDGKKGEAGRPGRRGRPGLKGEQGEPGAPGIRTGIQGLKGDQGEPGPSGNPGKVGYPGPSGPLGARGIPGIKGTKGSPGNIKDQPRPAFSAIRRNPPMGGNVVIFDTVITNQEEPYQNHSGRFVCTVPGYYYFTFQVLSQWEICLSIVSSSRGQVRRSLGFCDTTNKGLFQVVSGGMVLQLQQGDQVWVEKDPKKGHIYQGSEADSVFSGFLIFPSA
T1 sequence (P02746 28-253 partner): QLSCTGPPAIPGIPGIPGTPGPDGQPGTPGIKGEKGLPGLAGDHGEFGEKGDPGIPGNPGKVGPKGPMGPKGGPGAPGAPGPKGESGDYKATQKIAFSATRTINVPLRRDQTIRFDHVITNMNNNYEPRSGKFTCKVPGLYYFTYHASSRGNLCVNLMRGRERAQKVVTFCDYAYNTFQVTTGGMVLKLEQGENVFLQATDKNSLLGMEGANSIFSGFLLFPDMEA
T1 sequence (P02747 29-245 partner): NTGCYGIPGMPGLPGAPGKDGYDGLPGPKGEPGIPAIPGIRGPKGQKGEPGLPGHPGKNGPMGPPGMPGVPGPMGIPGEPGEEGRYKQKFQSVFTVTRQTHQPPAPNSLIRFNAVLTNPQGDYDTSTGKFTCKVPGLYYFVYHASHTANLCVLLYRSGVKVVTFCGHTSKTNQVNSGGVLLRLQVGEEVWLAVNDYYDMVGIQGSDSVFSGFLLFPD

Compound | Cl 026 Wells (activated human C1) | C-Late 035 Wells [1] | Shunt Inhibition 036 Wells (shunt pathway)
O=C(Nc1cc(C(=O)O)c(O)c(S(=O)(=O)O)c1)c1cc(C(=O)Nc2cc(C(=O)O)c(O)c(S(=O)(=O)O)c2)cc([N+](=O)[O-])c1 [5,5'-[(5-Nitro-1,3-phenylene)bis(carbonylimino)]bis[3-sulfosalicylic acid]disodium salt] | +2 Wells | N | N
O=C(Nc1ccc(O)c(C(=O)O)c1)c1cc(C(=O)Nc2ccc(O)c(C(=O)O)c2)cc([N+](=O)[O-])c1 [5,5'-[5-Nitro-m-phenylenebis(carbonylimino)]disalicylic acid] | α | N | N
Nc1cc(C(=O)Nc2cc(C(=O)O)c(O)c(S(=O)(=O)O)c2)cc(C(=O)Nc2cc(C(=O)O)c(O)c(S(=O)(=O)O)c2)c1 [5,5'-[5-Amino-1,3-phenylenebis(carbonylimino)]bis[3-sulfosalicylic acid]disodium salt] | +2 Wells | N | N
